Assay results published in PMC12072002, “Site-Directed Mutagenesis Increased the Catalytic Activity and Stability of Oenococcus oeni β-Glucosidase: Characterization of Enzymatic Properties and Exploration of Mechanisms” (International Journal of Molecular Sciences, 2025).
Read-outs that look alike come from different tables or passages of the source.

How the values were obtained:
Format in all cases: biochemical, Oenococcus oeni SD-2a
[1] = target: mutant IV (β-glucosidase N181R); set-up: key to IC50 on Mutant IV: “-”represents no enzymatic activity; conditions: for effect on enzyme activity of mutant IV: in words
Method: The method for the determination of the effects of different metal ions and additives on enzyme activity was referred to Zhou et al., with slight modifications. […] The enzyme solutions (10 μL), p-NPG solution (490 μL) and different concentrations of additive solutions (500 μL) were mixed well. The reaction lasted for 30 min under the optimal reaction conditions of the enzyme. Then, 1mL 1 M Na2CO3 was added to terminate the reaction. The absorbance value of the reaction system was measured at 420 nm and the activity of the BGLs was calculated according to the standard curve. The IC50 (half of the maximum inhibitory concentration) of the reagents on BGL activity was calculated using a logistic function with Growth/Sigmoidal-type nonlinear fitting in Origin Pro 8.0.

[2] = target: wild-type enzyme (β-glucosidase BGL0224); experiment: Effects of metal ions and additives on enzyme activity (p-NPG hydrolysis, IC50); set-up: key: “-”represents no enzymatic activity; conditions: additive concentration 0.2%
[3] = target: mutant III (β-glucosidase F133K); experiment: as above; set-up: key: “-”represents no enzymatic activity; conditions: additive concentration 0.2%
[4] = tested on: mutant III (β-glucosidase F133K); experiment: as above; conditions: for effect on enzyme activity of mutant III: in words; for IC50 on Mutant III / IC50: metal ions and additives, Concentration 5 mM, optimum temperature and pH
Method: (§1) The method for the determination of the effects of different metal ions and additives on enzyme activity was referred to Zhou et al., with slight modifications. To determine the effects of metal ions and some additives on the BGLs’ activity, lyophilized powders of the wild-type and mutant BGLs were formulated into solutions with a final concentration of 10 mg/mL using 20 mM sodium phosphate buffer as well as 25 mM of p-NPG substrate solution and different concentrations (0.1 mM, 0.5 mM, 1.0 mM, 5.0 mM and 10 mM) of metal ion solutions (K^+, Na^+, Li^+, Ag^+, Mg^2+, Zn^2+, Ba^2+, Ca^2+, Cu^2+, Mn^2+, Fe^2+ and Fe^3+) and additive solutions (SDS, DTT, EDTA, TritonX-100 and Tween-80). The enzyme solutions (10 μL), p-NPG solution (490 μL) and different concentrations of additive solutions (500 μL) were mixed well. The reaction lasted for 30 min under the optimal reaction conditions of the enzyme. Then, 1mL 1 M Na2CO3 was added to terminate the reaction. The absorbance value of the reaction system was measured at 420 nm and the activity of the BGLs was calculated according to the standard curve. The IC50 (half of the maximum inhibitory concentration) of the reagents on BGL activity was calculated using a logistic function with Growth/Sigmoidal-type nonlinear fitting in Origin Pro 8.0.

[5] = tested on: wild-type enzyme (β-glucosidase BGL0224); experiment: as above; conditions: for effect on enzyme activity of the wild-type enzyme: in words; for IC50 on Wild-Type Enzyme / IC50: metal ions and additives, Concentration 5 mM, optimum temperature and pH
Method: as §1

[6] = metal ions and additives, Concentration 5 mM, optimum temperature and pH

Row | Compound | effect on enzyme activity of mutant III ([4]; metal ion at 5 mM) | effect on enzyme activity of the wild-type enzyme ([5]; metal ion at 5 mM) | effect on enzyme activity of mutant IV ([1]; metal ion at 5 mM) | IC50 [4] [mM] | IC50 [5] [mM] | IC50 [1, 6] [mM] | also measured
1 | Triton X-100 [Triton-X100] |  |  |  |  |  |  | IC50 on Mutant IV ([1]; additive concentration 0.2%): -; IC50 on Wild-Type Enzyme [2]: -; IC50 on Mutant III [3]: -
2 | [Ba+2] [Ba^2+] | enhanced | enhanced | enhanced |  |  |  | IC50 on Mutant III [4]: Activator; IC50 on Wild-Type Enzyme [5]: Activator; IC50 on Mutant IV [1, 6]: Activator
3 | [Fe+2] [Fe^2+] | inhibitory effects | inhibitory effects | inhibitory effects | 3.96 | 2.83 | 4.43 | 
4 | [Ca+2] [Ca^2+] | inhibitory effects | inhibitory effects | inhibitory effects | 3.38 | 4.09 | 3.28 | 
5 | [Mg+2] [Mg^2+] | inhibitory effects | inhibitory effects | inhibitory effects | 3.37 | 8.92 | 5.35 | 
6 | CCCCCCCCCCCCOS(=O)(=O)[O-].[Na+] [SDS] |  |  |  | 6.72 | 7.89 | 6.29 | 
7 | [Ag+] [Ag^+] | inhibitory effects | inhibitory effects | inhibitory effects | 3.03 | 7.43 | 2.93 | 
8 | Tween-80 |  |  |  |  |  |  | IC50 on Mutant IV ([1]; additive concentration 0.2%): -; IC50 on Wild-Type Enzyme [2]: -; IC50 on Mutant III [3]: -
9 | [Mn+2] [Mn^2+] | promoted |  | promoted |  | 3.76 |  | IC50 on Mutant III [4]: Activator; inhibition of wild-type enzyme activity ([5]; metal ion at 5 mM): 76.51%; IC50 on Mutant IV [1, 6]: Activator
10 | O=C(O)CN(CCN(CC(=O)O)CC(=O)O)CC(=O)O [EDTA] |  |  |  | 6.89 | 6.41 | 7.16 | 
11 | [Cu+2] [Cu^2+] | inhibitory effects | inhibitory effects | inhibitory effects | 3.48 | 3.12 | 1.58 | 
12 | [K+] [K^+] | enhanced | enhanced |  |  |  | 2.42 | IC50 on Mutant III [4]: Activator; IC50 on Wild-Type Enzyme [5]: Activator; inhibition rate on mutant IV ([1]; metal ion at 5 mM): 85.02%
13 | [Na+] [Na^+] |  | increased | increased | 0.929 |  |  | inhibition rate on mutant III ([4]; metal ion at 5 mM): 97.45%; IC50 on Wild-Type Enzyme [5]: Activator; IC50 on Mutant IV [1, 6]: Activator
14 | [Li+] [Li^+] | enhanced | enhanced | enhanced |  |  |  | IC50 on Mutant III [4]: Activator; IC50 on Wild-Type Enzyme [5]: Activator; IC50 on Mutant IV [1, 6]: Activator
15 | [Zn+2] [Zn^2+] | inhibitory effects | inhibitory effects | inhibitory effects | 3.19 | 3.87 | 2.94 | 
16 | O[C@@H](CS)[C@@H](O)CS [DTT] |  |  |  | 5.49 | 7.93 | 6.17 | 
